Experimental data from publication PMC10202811 (Nature Medicine, 2023).
Like-named read-outs stand apart in the source and are kept apart here.

Assay: Plasma pharmacokinetics of lorlatinib at steady state (LC-MS/MS, non-compartmental analysis)
Format: in vivo, human
Conditions: human, plasma, oral; for Cmax: read-out: Cmax; for Tmax: read-out: Tmax
Source text: Lorlatinib was isolated from human plasma by a liquid-iquid extraction procedure. […] A linear-log trapezoidal method was used [NT] A best-fit method was used to estimate terminal elimination and to extrapolate any plasma concentration versus time profiles to compute [NT].

[1] = 60 mg/m2, Cohort A1, 60 mg/m2 per dose, C1D15, individual patient
[2] = 60 mg/m2, Cycle 1 Day 1, Cohort A1, 60 mg/m2 per dose, individual patients
[3] = 60 mg/m2, Cycle 1 Day 15, Cohort A1, 60 mg/m2 per dose, individual patients
[4] = 75 mg/m2, Cohort A1, 75 mg/m2 per dose, C1D15, Geometric Mean, N 3
[5] = 75 mg/m2, Cohort A1, 75 mg/m2 per dose, C1D15, Median, N 3
[6] = 75 mg/m2, Cycle 1 Day 1, Cohort A1, 75 mg/m2 per dose, individual patients
[7] = 95 mg/m2, Cohort A1, 95 mg/m2 per dose, C1D15, Geometric Mean, N 9
[8] = 95 mg/m2, Cohort A1, 95 mg/m2 per dose, C1D15, Median, N 9
[9] = 95 mg/m2, Cohort B2, 95 mg/m2 per dose, C1D15, Geometric Mean, N 2
[10] = 95 mg/m2, Cohort B2, 95 mg/m2 per dose, C1D15, Median, N 2
[11] = 95 mg/m2, Cohort B2, 95 mg/m2 per dose, C1D15, individual patient
[12] = 95 mg/m2, Cycle 1 Day 1, Cohort A1, 95 mg/m2 per dose
[13] = 95 mg/m2, Cycle 1 Day 1, Cohort B2, 95 mg/m2 per dose
[14] = 95 mg/m2, Cycle 1 Day 1, Cohort A1, 95 mg/m2 per dose, individual patients
[15] = 95 mg/m2, Cycle 1 Day 15, Cohort B2, 95 mg/m2 per dose
[16] = 95 mg/m2, steady state, Cohort B2 (with topotecan/cyclophosphamide), 95 mg/m^2 QD, individual values
[17] = 100 mg, Cohort A2, 100 mg per dose, C1D15, Geometric Mean, N 5
[18] = 100 mg, Cohort A2, 100 mg per dose, C1D15, Median, N 5
[19] = 100 mg, Cycle 1 Day 1, Cohort A2, 100 mg per dose, individual patients
[20] = 150 mg per dose, Cycle 1 Day 1, Cohort A2, 150 mg per dose
[21] = 150 mg per dose, Cycle 1 Day 15, Cohort A2, 150 mg per dose
[22] = 150 mg, Cohort A2, 150 mg per dose, C1D15, Geometric Mean, N 10
[23] = 150 mg, Cohort A2, 150 mg per dose, C1D15, Median, N 10
[24] = 150 mg, Cycle 1 Day 1, Cohort A2, 150 mg per dose, individual patients
[25] = 150 mg, Cycle 1 Day 15, Cohort A2, 150 mg per dose, individual patients

C[C@H]1Oc2cc(cnc2N)-c2c(nn(C)c2C#N)CN(C)C(=O)c2ccc(F)cc21 [Lorlatinib, (10R)-7-amino-12-fluoro-2,10,16-trimethyl-15-oxo-10,15,16,17-tetrahydro-2H-8,4-(metheno)pyrazolo[4,3-h][2,5,11]-benzoxadiazacyclotetradecine-3-carbonitrile]
Cmax [1]: 623 ng/mL
Tmax [1]: 2 h
AUC(0-t) [2]: 3960 ng·h/mL
MRT last [2]: 6.96 h
Cmax [2]: 761 ng/mL
Tmax [2]: 1 h
AUC(0-t) [3]: 4140 ng·h/mL
AUC(0-inf) (60 mg/m2, Cycle 1 Day 15, Cohort A1, 60 mg/m2 per dose, individual patients, read-out: AUCINF_obs): 5050 ng·h/mL
AUC(0-inf) (60 mg/m2, Cycle 1 Day 15, Cohort A1, 60 mg/m2 per dose, individual patients, read-out: AUCINF_pred): 5040 ng·h/mL
AUC (60 mg/m2, Cycle 1 Day 15, Cohort A1, 60 mg/m2 per dose, individual patients, read-out: AUC_TAU): 4140 ng·h/mL
AUC (60 mg/m2, Cycle 1 Day 15, Cohort A1, 60 mg/m2 per dose, individual patients, read-out: AUCall): 4140 ng·h/mL
Cmax [3]: 623 ng/mL
MRT inf (60 mg/m2, Cycle 1 Day 15, Cohort A1, 60 mg/m2 per dose, individual patients, read-out: MRTINF_obs): 13 h
MRT inf (60 mg/m2, Cycle 1 Day 15, Cohort A1, 60 mg/m2 per dose, individual patients, read-out: MRTINF_pred): 12.9 h
Tmax [3]: 2 h
AUC (60 mg/m2, steady state, Cohort A1, 60 mg/m^2 QD, (CV), read-out: AUCtau): 3930 ng·h/mL
Cmax (60 mg/m2, steady state, Cohort A1, 60 mg/m^2 QD, (CV)): 492 ng/mL
Tmax (60 mg/m2, steady state, Cohort A1, 60 mg/m^2 QD): 2 h
AUC (75 mg/m2, Cohort A1, 75 mg/m2 per dose, C1D15, Geometric Mean, N 3, read-out: AUC_TAU): 4150 ng·h/mL
Cmax [4]: 645 ng/mL
Tmax [4]: 2.29 h
AUC (75 mg/m2, Cohort A1, 75 mg/m2 per dose, C1D15, Median, N 3, read-out: AUC_TAU): 4020 ng·h/mL
Cmax [5]: 659 ng/mL
Tmax [5]: 2 h
Cmax (75 mg/m2, Cohort A1, 75 mg/m2 per dose, C1D15, individual patient): 659 ng/mL
AUC(0-t) [6]: 6740 ng·h/mL
MRT last [6]: 7.77 h
AUC (75 mg/m2, Cycle 1 Day 1, Cohort A1, 75 mg/m2 per dose, individual patients, read-out: AUCall): 6740 ng·h/mL
Cmax [6]: 961 ng/mL
Tmax [6]: 1 h
AUC(0-inf) (75 mg/m2, Cycle 1 Day 15, Cohort A1, 75 mg/m2 per dose, individual patients, read-out: AUCINF_obs): 4500 ng·h/mL
AUC(0-inf) (75 mg/m2, Cycle 1 Day 15, Cohort A1, 75 mg/m2 per dose, individual patients, read-out: AUCINF_pred): 4490 ng·h/mL
Cmax (75 mg/m2, Cycle 1 Day 15, Cohort A1, 75 mg/m2 per dose, individual patients): 659 ng/mL
MRT inf (75 mg/m2, Cycle 1 Day 15, Cohort A1, 75 mg/m2 per dose, individual patients, read-out: MRTINF_obs): 10.3 h
MRT inf (75 mg/m2, Cycle 1 Day 15, Cohort A1, 75 mg/m2 per dose, individual patients, read-out: MRTINF_pred): 10.3 h
AUC (75 mg/m2, steady state, Cohort A1, 75 mg/m^2 QD, (CV), read-out: AUCtau): 4160 ng·h/mL
Cmax (75 mg/m2, steady state, Cohort A1, 75 mg/m^2 QD, (CV)): 645 ng/mL
Tmax (75 mg/m2, steady state, Cohort A1, 75 mg/m^2 QD): 2 h
AUC (95 mg/m2, Cohort A1, 95 mg/m2 per dose, C1D15, Geometric Mean, N 9, read-out: AUC_TAU): 7470 ng·h/mL
Cmax [7]: 1020 ng/mL
Tmax [7]: 1.47 h
AUC (95 mg/m2, Cohort A1, 95 mg/m2 per dose, C1D15, Median, N 9, read-out: AUC_TAU): 6910 ng·h/mL
Cmax [8]: 1100 ng/mL
Tmax [8]: 1 h
AUC (95 mg/m2, Cohort B2, 95 mg/m2 per dose, C1D15, Geometric Mean, N 2, read-out: AUC_TAU): 6690 ng·h/mL
Cmax [9]: 817 ng/mL
Tmax [9]: 2.83 h
AUC (95 mg/m2, Cohort B2, 95 mg/m2 per dose, C1D15, Median, N 2, read-out: AUC_TAU): 6810 ng·h/mL
Cmax [10]: 824 ng/mL
Tmax [10]: 3 h
AUC (95 mg/m2, Cohort B2, 95 mg/m2 per dose, C1D15, individual patient, read-out: AUC_TAU): 8100 ng·h/mL
Cmax [11]: 926 ng/mL
Tmax [11]: 4 h
MRT last [12]: 7.38 h
Tmax [12]: 1 h
Cmax [13]: 914 ng/mL
Tmax [13]: 2 h
MRT last [14]: 9.06 h
Tmax [14]: 2 h
Tmax (95 mg/m2, Cycle 1 Day 15, Cohort A1, 95 mg/m2 per dose): 1 h
AUC(0-t) [15]: 8100 ng·h/mL
AUC(0-inf) (95 mg/m2, Cycle 1 Day 15, Cohort B2, 95 mg/m2 per dose, read-out: AUCINF_obs): 5730 ng·h/mL
AUC(0-inf) (95 mg/m2, Cycle 1 Day 15, Cohort B2, 95 mg/m2 per dose, read-out: AUCINF_pred): 5730 ng·h/mL
AUC (95 mg/m2, Cycle 1 Day 15, Cohort B2, 95 mg/m2 per dose, read-out: AUC_TAU): 8100 ng·h/mL
AUC (95 mg/m2, Cycle 1 Day 15, Cohort B2, 95 mg/m2 per dose, read-out: AUCall): 8100 ng·h/mL
Cmax [15]: 926 ng/mL
MRT inf (95 mg/m2, Cycle 1 Day 15, Cohort B2, 95 mg/m2 per dose, read-out: MRTINF_obs): 7.79 h
MRT inf (95 mg/m2, Cycle 1 Day 15, Cohort B2, 95 mg/m2 per dose, read-out: MRTINF_pred): 7.77 h
Tmax [15]: 4 h
MRT inf (95 mg/m2, Cycle 1 Day 15, Cohort A1, 95 mg/m2 per dose, individual patients, read-out: MRTINF_obs): 20.6 h
MRT inf (95 mg/m2, Cycle 1 Day 15, Cohort A1, 95 mg/m2 per dose, individual patients, read-out: MRTINF_pred): 20.5 h
AUC (95 mg/m2, steady state, Cohort A1, 95 mg/m^2 QD, (CV), read-out: AUCtau): 7470 ng·h/mL
Cmax (95 mg/m2, steady state, Cohort A1, 95 mg/m^2 QD, (CV)): 1020 ng/mL
Tmax (95 mg/m2, steady state, Cohort A1, 95 mg/m^2 QD): 1 h
AUC (95 mg/m2, steady state, Cohort B2 (with topotecan/cyclophosphamide), 95 mg/m^2 QD, individual values, read-out: AUCtau): 8100 ng·h/mL
Cmax [16]: 926 ng/mL
Tmax [16]: 4 h
AUC (100 mg, Cohort A2, 100 mg per dose, C1D15, Geometric Mean, N 5, read-out: AUC_TAU): 6790 ng·h/mL
Cmax [17]: 789 ng/mL
Tmax [17]: 1.74 h
AUC (100 mg, Cohort A2, 100 mg per dose, C1D15, Median, N 5, read-out: AUC_TAU): 6130 ng·h/mL
Cmax [18]: 569 ng/mL
Tmax [18]: 2 h
MRT last [19]: 12.4 h
Tmax [19]: 2 h
MRT inf (100 mg, Cycle 1 Day 15, Cohort A2, 100 mg per dose, individual patients, read-out: MRTINF_obs): 23.8 h
MRT inf (100 mg, Cycle 1 Day 15, Cohort A2, 100 mg per dose, individual patients, read-out: MRTINF_pred): 23.7 h
AUC (100 mg, steady state, Cohort A2, 100 mg QD, (CV), read-out: AUCtau): 6790 ng·h/mL
Cmax (100 mg, steady state, Cohort A2, 100 mg QD, (CV)): 789 ng/mL
Tmax (100 mg, steady state, Cohort A2, 100 mg QD): 2 h
AUC(0-t) [20]: 8990 ng·h/mL
MRT last [20]: 9.33 h
AUC (150 mg per dose, Cycle 1 Day 1, Cohort A2, 150 mg per dose, read-out: AUCall): 8990 ng·h/mL
Tmax [20]: 1 h
AUC(0-t) [21]: 5000 ng·h/mL
AUC (150 mg per dose, Cycle 1 Day 15, Cohort A2, 150 mg per dose, read-out: AUCall): 5000 ng·h/mL
Tmax [21]: 2 h
AUC (150 mg, Cohort A2, 150 mg per dose, C1D15, Geometric Mean, N 10, read-out: AUC_TAU): 6680 ng·h/mL
Cmax [22]: 741 ng/mL
Tmax [22]: 1.41 h
AUC (150 mg, Cohort A2, 150 mg per dose, C1D15, Median, N 10, read-out: AUC_TAU): 6890 ng·h/mL
Cmax [23]: 710 ng/mL
Tmax [23]: 1 h
AUC (150 mg, Cohort A2, 150 mg per dose, C1D15, individual patient, read-out: AUC_TAU): 5920 ng·h/mL
AUC(0-t) [24]: 5920 ng·h/mL
MRT last [24]: 8.35 h
AUC (150 mg, Cycle 1 Day 1, Cohort A2, 150 mg per dose, individual patients, read-out: AUCall): 5920 ng·h/mL
Cmax [24]: 564 ng/mL
Tmax [24]: 1 h
AUC (150 mg, Cycle 1 Day 15, Cohort A2, 150 mg per dose, read-out: AUC_TAU): 5000 ng·h/mL
AUC(0-t) [25]: 7380 ng·h/mL
AUC(0-inf) (150 mg, Cycle 1 Day 15, Cohort A2, 150 mg per dose, individual patients, read-out: AUCINF_pred): 8770 ng·h/mL
AUC (150 mg, Cycle 1 Day 15, Cohort A2, 150 mg per dose, individual patients, read-out: AUC_TAU): 7380 ng·h/mL
AUC (150 mg, Cycle 1 Day 15, Cohort A2, 150 mg per dose, individual patients, read-out: AUCall): 7380 ng·h/mL
concentration at 24 h (150 mg, Cycle 1 Day 15, Cohort A2, 150 mg per dose, individual patients, read-out: Clast_pred): 128 ng/mL
Cmax [25]: 658 ng/mL
MRT inf (150 mg, Cycle 1 Day 15, Cohort A2, 150 mg per dose, individual patients, read-out: MRTINF_obs): 16.8 h
MRT inf (150 mg, Cycle 1 Day 15, Cohort A2, 150 mg per dose, individual patients, read-out: MRTINF_pred): 16.7 h
AUC (150 mg, steady state, Cohort A2, 150 mg QD, (CV), read-out: AUCtau): 6680 ng·h/mL
Cmax (150 mg, steady state, Cohort A2, 150 mg QD, (CV)): 741 ng/mL
Tmax (150 mg, steady state, Cohort A2, 150 mg QD): 1 h
